Results reported in ChEMBL document CHEMBL3271962 (J Med Chem, 1976).

Legend:
Transporter = Transporter (Rattus norvegicus, UniProt Q63380); assay: Inhibition of [3H]norepinephrine uptake at NET expressed in rat hypothalamic homogenate containing synaptosomes after 5 mins by scintillation counting analysis; assay type: subcellular, Brain
[1] = target: Sodium-dependent dopamine transporter (Rattus norvegicus, UniProt P23977); assay: Inhibition of [3H]dopamine uptake at dopamine transporter expressed in rat striatal homogenate after 5 mins by scintillation counting analysis
Sodium-dependent dopamine transporter, sequence (P23977 whole entry): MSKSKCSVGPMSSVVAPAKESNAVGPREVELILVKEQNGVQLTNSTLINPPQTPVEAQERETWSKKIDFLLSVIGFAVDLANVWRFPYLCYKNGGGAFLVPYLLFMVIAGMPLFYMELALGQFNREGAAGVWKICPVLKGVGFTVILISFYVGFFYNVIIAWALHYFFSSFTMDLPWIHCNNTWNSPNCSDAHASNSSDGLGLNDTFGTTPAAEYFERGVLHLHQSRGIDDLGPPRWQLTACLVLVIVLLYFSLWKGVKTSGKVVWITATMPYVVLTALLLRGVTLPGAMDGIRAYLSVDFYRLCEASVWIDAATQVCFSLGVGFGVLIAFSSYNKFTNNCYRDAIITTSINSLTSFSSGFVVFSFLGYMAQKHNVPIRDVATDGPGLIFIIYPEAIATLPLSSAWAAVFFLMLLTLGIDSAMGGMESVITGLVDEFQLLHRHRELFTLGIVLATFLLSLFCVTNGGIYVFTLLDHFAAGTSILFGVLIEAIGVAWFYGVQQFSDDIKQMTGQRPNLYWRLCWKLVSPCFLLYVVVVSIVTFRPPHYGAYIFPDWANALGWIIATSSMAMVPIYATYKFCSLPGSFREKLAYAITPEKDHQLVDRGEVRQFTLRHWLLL

[2] = target: Sodium-dependent dopamine transporter (Rattus norvegicus) (UniProt P23977); assay: Inhibition of [3H]dopamine uptake at dopamine transporter expressed in rat striatal homogenate after 5 mins by scintillation counting analysis relative to (+)-amphetamine
Sodium-dependent dopamine transporter (Rattus norvegicus), sequence (P23977 whole entry): as above

Rattus norvegicus = species: Rattus norvegicus; assay: Inhibition of [3H]norepinephrine uptake at NET expressed in rat hypothalamic homogenate containing synaptosomes after 5 mins by scintillation counting analysis relative to (+)-amphetamine; assay type: subcellular; settings: Brain

Transporter, sequence (Q63380 whole entry): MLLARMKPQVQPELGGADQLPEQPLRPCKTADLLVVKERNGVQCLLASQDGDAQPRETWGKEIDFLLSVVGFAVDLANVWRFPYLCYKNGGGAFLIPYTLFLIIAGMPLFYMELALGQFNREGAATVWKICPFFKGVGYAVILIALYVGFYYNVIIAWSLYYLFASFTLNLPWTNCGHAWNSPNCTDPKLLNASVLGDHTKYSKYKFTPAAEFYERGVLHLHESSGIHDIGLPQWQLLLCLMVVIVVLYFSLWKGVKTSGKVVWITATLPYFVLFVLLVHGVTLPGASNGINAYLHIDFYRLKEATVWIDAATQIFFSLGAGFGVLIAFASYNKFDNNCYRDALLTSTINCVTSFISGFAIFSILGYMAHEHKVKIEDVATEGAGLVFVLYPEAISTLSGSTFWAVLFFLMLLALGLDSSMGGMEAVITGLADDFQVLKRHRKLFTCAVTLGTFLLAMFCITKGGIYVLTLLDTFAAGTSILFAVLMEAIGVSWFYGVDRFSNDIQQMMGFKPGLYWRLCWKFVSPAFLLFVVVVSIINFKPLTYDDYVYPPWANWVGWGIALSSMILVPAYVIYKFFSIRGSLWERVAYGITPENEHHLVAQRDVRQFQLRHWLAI

Structure (SMILES) | IC50 (Transporter) | IC50 [1] | fold change (FC) [2] | fold change (FC) (Rattus norvegicus)
NC1C[C@@H]2CCCC[C@H]2CC1c1ccccc1 (mixture of isomers; 2) [listing 1 of 2 here] | 18 µM | 12 µM |  | 
NC1C[C@@H]2CCCC[C@H]2CC1c1ccccc1 (mixture of isomers; 4) [listing 1 of 2 here] | 5.5 µM | 7 µM |  | 
NC1C[C@@H]2CCCC[C@H]2CC1c1ccccc1 (mixture of isomers; 2) [listing 2 of 2 here] |  |  | 8 | 1.1
NC1C[C@@H]2CCCC[C@H]2CC1(O)c1ccc(O)c(O)c1 (mixture of isomers; form 2) |  |  | 50 | 8.9
NC1C[C@@H]2CCCC[C@H]2CC1(O)c1ccc(O)c(O)c1 (mixture of isomers; form 1) |  |  | 2.3 | 4.4
NC1C[C@@H]2CCCC[C@H]2CC1c1ccccc1 (mixture of isomers; 1) [listing 1 of 2 here] |  |  | 25 | 30
NC1C[C@@H]2CCCC[C@H]2CC1c1ccccc1 (mixture of isomers; 3) [listing 1 of 2 here] |  |  | 4.8 | 2.2
NC1C[C@@H]2CCCC[C@H]2CC1c1ccccc1 (mixture of isomers; 3) [listing 2 of 2 here] | 9 µM | 20 µM |  | 
NC1C[C@@H]2CCCC[C@H]2CC1(O)c1ccc(O)c(O)c1 (mixture of isomers; form 3) |  |  | 1.1 | 0.03
NC1C[C@@H]2CCCC[C@H]2CC1c1ccccc1 (mixture of isomers; 1) [listing 2 of 2 here] | 0.66 µM | 3.8 µM |  | 
NC[C@H](O)c1ccc(O)c(O)c1 |  |  | 100 | 100
NC1C[C@@H]2CCCC[C@H]2CC1(O)c1ccc(O)c(O)c1 (mixture of isomers; form 4) |  |  | 5.7 | 2
NC1C[C@@H]2CCCC[C@H]2CC1c1ccccc1 (mixture of isomers; 4) [listing 2 of 2 here] |  |  | 14 | 3.6
